From patent US20160183564A1 (priority 2013, published 2016)
Where “and” joins values, the source holds several entries; their conditions need not be identical. Equal entries are not always repeated.

Tests used:
Methanogenesis = type: cell-based
VFA production = type: cell-based

SMILES	Effect on Methanogenesis (% compared to control) (Methanogenesis)	VFA profile (as percentage of total VFA) But. (VFA production)	VFA profile (as percentage of total VFA) Prop. (VFA production)	VFA profile (as percentage of total VFA) ace. (VFA production)
O=[N+]([O-])OCCCO [3-nitrooxy propanol, 3-Nitrooxypropanol]	−9% and −8%	6 percentage of total VFA	34 percentage of total VFA	59 percentage of total VFA
CCCNc1ccc([N+](=O)[O-])cc1 [(4-Nitro-phenyl)-propyl-amine]	−11%	–	–	–
O=[N+]([O-])c1ccc(NCCO)cc1 [2-(4-Nitro-phenylamino)-ethanol]	−12%	–	–	–
Nc1ccc([N+](=O)[O-])cc1 [(4-nitro-phenyl)-amine]	−15%	8 percentage of total VFA	33 percentage of total VFA	59 percentage of total VFA
